Measurements: patent US20080146593A1, “Substituted 5-Phenyl Pyrimidines I In Therapy” (Basf Aktiengesellschaft, priority 2005, published 2008)

Tested on: HeLa cells
Test: Measurement of the cell cycle inhibition in HeLa cells
Type: cell-based
Details: HeLa B cells, 20 h incubation with compound; FACS ratio G0/G1 to G2/M vs DMSO; concentration at which 50% of cells are in cell cycle arrest
Experimental: Measurement of the Cell Cycle Inhibition in HeLa Cells—Test Procedure:
HeLa B cells are grown in DMEM (Life Technologies Cat No 21969-035) supplemented with 10% Fetal Calf Serum (FCS, Life Technologies Cat No 10270-106) in 180 cm^2 Flasks at 37° C., 92% humidity and 7% CO2.
Cells are seeded at 5×10^4 cells per well in a 24-well plate. Twenty hours later the compounds are added such that the final concentration is 1×10^−6, 3.3×10^−7, 1.1×10^−7, 3.7×10^−8, 1.2×10^−8 and 1×10^−9 M in a final volume of 500 μl. DMSO alone is added to 6 wells as a control. Cells are incubated with the compounds as above for 20 h. Then cells are observed under the microscope to check for cell death, and the 24-well plate is then centrifuged at 1200 rpm for 5 min at 20° C., acceleration position 7 and break position 5 (Eppendorf centrifuge 5804R).
The supernatant is removed and the cells lysed with 0.5 ml RNase Buffer (10 mM NaCitrate, 0.1% Nonidet NP40, 50 μg/ml RNase, 10 μg/ml Propidium iodide) per well. The plates are then incubated for at least 30 min in the dark at RT and the samples then transferred to FACS tubes. Samples are measured in a FACS machine (Beckton Dickinson) at the following settings:
Instrument Settings of the FACS Calibur:
The ratio of cells in G0/G1-phase to G2/M phase is calculated and compared to the value for the controls (DMSO) only. Results are given in table 2 as the IC50 value calculated from the concentration curve plotted against the cell cycle ratio and indicate the compound concentration at which 50% of cells are in cell cycle arrest after treatment with the compound.

| SMILES | IC50 [nM] |
| --- | --- |
| CC(C)Nc1nc(-c2ccccn2)nc(Cl)c1-c1c(F)cccc1F [Example 83] | 37 |
| Cc1ccc(-c2c(Cl)nc(-n3cccn3)nc2N2CCC(C)CC2)c(F)c1 [Example 87] | 39 |
| CCOC(=O)c1cc(C)nn1-c1nc(Cl)c(-c2c(F)cc(F)cc2F)c(N[C@H](C)C(C)C)n1 [Example 88] | 44 |
| CC(C)[C@@H](C)Nc1nc(-n2cnc([N+](=O)[O-])n2)nc(Cl)c1-c1c(F)cc(F)cc1F [Example 89] | 47 |
| Cc1nc(-n2cncn2)nc(N2CCC(C)CC2)c1-c1c(F)cc(F)cc1F [Example 93] | 39 |
| Cc1cn(-c2nc(Cl)c(-c3c(F)cc(F)cc3F)c(NC(C)C(F)(F)F)n2)nc1-c1ccco1 (stereo not shown) [Example 95] | 39 |
| CC1CCCN1c1nc(-n2cncn2)nc(Cl)c1-c1c(F)cccc1Cl (stereo not shown) [Example 98] | 46 |
| Cc1ccc(-c2c(Cl)nc(-n3cccn3)nc2N2CCCC(C)C2)c(F)c1 (stereo not shown) [Example 99] | 39 |
| Cc1ccc(-c2c(Cl)nc(-n3cncn3)nc2N[C@@H](C)C(C)C)c(F)c1 [Example 100] | 40 |
| CC[C@H](C)Nc1nc(-n2cccn2)nc(Cl)c1-c1ccc(C)cc1F [Example 102] | 50 |
| CCCNc1nc(-n2cccn2)nc(Cl)c1-c1ccc(C)cc1F [Example 103] | 39 |
| CC(C)Nc1nc(-n2ccc(N)n2)nc(Cl)c1-c1c(F)cc(F)cc1F [Example 104] | 47 |
| CCC(C)Nc1nc(-n2cccn2)nc(Cl)c1-c1ccc(F)cc1F (stereo not shown) [Example 105] | 45 |
| CCC(C)Nc1nc(-n2ccnn2)nc(Cl)c1-c1c(F)cccc1Cl (stereo not shown) [Example 107] | 39 |
| CCC(C)Nc1nc(-n2cncn2)nc(Cl)c1-c1c(F)cccc1F (stereo not shown) [Example 113] | 49 |
| CCC(C)Nc1nc(-n2ccnn2)nc(Cl)c1-c1c(F)cccc1F (stereo not shown) [Example 114] | 41 |
| CC1CCN(c2nc(-n3cncn3)nc(Cl)c2-c2c(F)cccc2F)CC1 [Example 116] | 42 |
| CC1CCN(c2nc(-n3ccnn3)nc(Cl)c2-c2ccc(F)cc2Cl)CC1 [Example 119] | 48 |

| SMILES | IC50 [nM] |
| --- | --- |
| CCCC(C)Nc1nc(-n2ccc(N)n2)nc(Cl)c1-c1ccc(C)cc1F (stereo not shown) [Example 121] | 50 |
| C=C(C)CNc1nc(-n2ccc(N)n2)nc(Cl)c1-c1c(F)cc(F)cc1F [Example 122] | 46 |
| C=CCN(C)c1nc(-n2cc(Br)cn2)nc(Cl)c1-c1c(F)cc(F)cc1F [Example 123] | 49 |
| CC(CO)Nc1nc(-n2cc(Br)cn2)nc(Cl)c1-c1c(F)cc(F)cc1F (stereo not shown) [Example 124] | 45 |
| CC1CCCCN1c1nc(-n2cccn2)nc(Cl)c1-c1c(F)cccc1F (stereo not shown) [Example 125] | 38 |
| CC1CCCCN1c1nc(-n2ccnn2)nc(Cl)c1-c1c(F)cccc1F (stereo not shown) [Example 126] | 38 |
| CC1CCCCN1c1nc(-n2ccc(N)n2)nc(Cl)c1-c1c(F)cccc1F (stereo not shown) [Example 127] | 37 |
| COCC(C)Nc1nc(-n2ccc(N)n2)nc(Cl)c1-c1ccc(C)cc1F (stereo not shown) [Example 128] | 38 |
| C=CCCN(C)c1nc(-n2ccc(N)n2)nc(Cl)c1-c1c(F)cccc1Cl [Example 131] | 48 |
| C=CCCN(C)c1nc(-n2cccn2)nc(Cl)c1-c1ccc(F)cc1Cl [Example 132] | 46 |
| C=CCCN(C)c1nc(-n2cc(C)cn2)nc(Cl)c1-c1ccc(F)cc1Cl [Example 133] | 41 |
| C=CCN(CC=C)c1nc(-n2cc(Br)cn2)nc(Cl)c1-c1ccc(F)cc1Cl [Example 134] | 50 |
| CC1CCCCN1c1nc(-n2cncn2)nc(Cl)c1-c1ccc(F)cc1F (stereo not shown) [Example 141] | 46 |
| C=CCN(C)c1nc(-n2cccn2)nc(Cl)c1-c1c(F)cc(F)cc1F [Example 142] | 39 |
| CON=C(N)c1nc(Cl)c(-c2c(F)cc(F)cc2F)c(N[C@@H](C)C(C)C)n1 [Example 147] | 41 |
| CCC(C)Nc1nc(-n2ccc(N)n2)nc(Cl)c1-c1c(F)cccc1Cl (stereo not shown) [Example 148] | 34 |
| Cc1ccc(-c2c(Cl)nc(-n3ccc(N)n3)nc2NCC(F)(F)F)c(F)c1 [Example 149] | 41 |
| Cc1ccc(-c2c(Cl)nc(-n3cc(Cl)cn3)nc2NCC(F)(F)F)c(F)c1 [Example 150] | 50 |

More lines, in order of falling IC50, values ahead:

| IC50 [nM] | SMILES |
| --- | --- |
| 34 | CC1CCN(c2nc(-c3ccccn3)nc(Cl)c2-c2c(F)cccc2F)CC1 [Example 81] |
| 33 | CC(C)Nc1nc(-n2cccn2)nc(Cl)c1-c1c(F)cc(F)cc1F [Example 101] |
| 32 | Cc1nc(C)n(-c2nc(Cl)c(-c3c(F)cccc3F)c(N3CCC(C)CC3)n2)n1 [Example 118] |
| 32 | CCC(C)Nc1nc(-n2ccc(N)n2)nc(Cl)c1-c1c(C)cccc1F (stereo not shown) [Example 143] |
| 32 | CCC(C)Nc1nc(C(N)=NO)nc(Cl)c1-c1c(F)cc(F)cc1F (stereo not shown) [Example 146] |
| 30 | CC(C)C(C)Nc1nc(-c2ccccn2)nc(Cl)c1-c1c(F)cccc1F (stereo not shown) [Example 82] |
| 29 | CC1CCCCN1c1nc(-n2cccn2)nc(Cl)c1-c1c(F)cc(F)cc1F (stereo not shown) [Example 96] |
| 29 | CCC(C)Nc1nc(-n2ccnn2)nc(Cl)c1-c1c(C)cccc1F (stereo not shown) [Example 111] |
| 29 | CC(C)[C@H](C)Nc1nc(-c2nccs2)nc(Cl)c1-c1c(F)cccc1Cl [Example 136] |
| 27 | CC(C)C(C)Nc1nc(-c2ccccn2)nc(Cl)c1-c1c(F)cccc1F (stereo not shown) [Example 84] |
| 27 | Cc1nc(-n2ccnn2)nc(N2CCC(C)CC2)c1-c1c(F)cc(F)cc1F [Example 90] |
| 27 | Cc1c[nH]n(-c2nc(Cl)c(-c3c(F)cc(F)cc3F)c(N[C@@H](C)C(F)(F)F)n2)c1=O [Example 153] |
| 26 | CC(C)C(C)Nc1nc(-c2cccnn2)nc(Cl)c1-c1c(F)cc(F)cc1F (stereo not shown) [Example 80] |
| 26 | Cc1ccn(-c2nc(Cl)c(-c3c(F)cc(F)cc3F)c(N[C@H](C)C(C)C)n2)n1 [Example 92] |
| 26 | CC(C)[C@H](C)Nc1nc(-n2ccnn2)nc(Cl)c1-c1c(F)cc(F)cc1F [Example 139] |
| 26 | COc1c(C)cnn1-c1nc(Cl)c(-c2c(F)cc(F)cc2F)c(N[C@@H](C)C(F)(F)F)n1 [Example 154] |
| 25 | CC1CCN(c2nc(-n3cnc(N)n3)nc(Cl)c2-c2c(F)cc(F)cc2F)CC1 [Example 94] |
| 25 | CCC(C)Nc1nc(-n2cccn2)nc(Cl)c1-c1c(C)cccc1F (stereo not shown) [Example 109] |
| 25 | CCC(C)Nc1nc(-n2cncn2)nc(Cl)c1-c1c(C)cccc1F (stereo not shown) [Example 110] |
| 25 | CCC(C)Nc1nc(-n2cc(I)cn2)nc(Cl)c1-c1c(C)cccc1F (stereo not shown) [Example 120] |

| IC50 [nM] | SMILES |
| --- | --- |
| 25 | CC(C)Nc1nc(C(N)=NO)nc(Cl)c1-c1c(F)cc(F)cc1F [Example 144] |
| 24 | COc1cc(F)c(-c2c(Cl)nc(-n3cnc([N+](=O)[O-])n3)nc2N2CCC(C)CC2)c(F)c1 [Example 86] |
| 24 | CCOC(=O)C(C)C=NNc1nc(Cl)c(-c2c(F)cc(F)cc2F)c(N[C@@H](C)C(F)(F)F)n1 (stereo partly shown) [Example 152] |
| 23 | CC1CCN(c2nc(-n3cccn3)nc(Cl)c2-c2c(F)cccc2F)CC1 [Example 115] |
| 23 | CC(C)[C@H](C)Nc1nc(-n2cccn2)nc(Cl)c1-c1c(F)cc(F)cc1F [Example 138] |
| 23 | CC(C)[C@H](C)Nc1nc(C(N)=NO)nc(Cl)c1-c1c(F)cc(F)cc1F [Example 145] |
| 22 | Cc1cnn(-c2nc(Cl)c(-c3c(F)cc(F)cc3F)c(N[C@@H](C)C(F)(F)F)n2)c1Cl [Example 155] |
| 21 | Cc1nc(C)n(-c2nc(Cl)c(-c3c(F)cccc3Cl)c(N3CCC(C)CC3)n2)n1 [Example 85] |
| 21 | CCC(C)Nc1nc(ON=C(C)C)nc(Cl)c1-c1c(C)cccc1F (stereo not shown) [Example 112] |
| 20 | CCC(C)Nc1nc(-n2ccnn2)nc(Cl)c1-c1c(F)cc(F)cc1F (stereo not shown) [Example 91] |
| 20 | CC1CCCN1c1nc(-n2cccn2)nc(Cl)c1-c1c(F)cccc1F (stereo not shown) [Example 140] |
| 19 | CC1CCN(c2nc(-n3ccnn3)nc(Cl)c2-c2c(F)cccc2F)CC1 [Example 117] |
| 18 | C=CCN(CC=C)c1nc(-n2ccc(N)n2)nc(Cl)c1-c1ccc(F)cc1Cl [Example 135] |
| 16 | Cc1ccc(-c2c(Cl)nc(-n3cccn3)nc2NCC(F)(F)F)c(F)c1 [Example 108] |
| 14 | C[C@H](Nc1nc(-c2nccs2)nc(Cl)c1-c1c(F)cc(F)cc1F)C(F)(F)F [Example 129] |
| 13 | CCC(C)Nc1nc(-n2cccn2)nc(Cl)c1-c1ccc(C)cc1F (stereo not shown) [Example 97] |
| 12 | CCC(C)Nc1nc(-n2cccn2)nc(Cl)c1-c1c(F)cccc1Cl (stereo not shown) [Example 106] |
| 8.3 | C[C@H](Nc1nc(-n2cnc(SCc3ccccc3)n2)nc(Cl)c1-c1c(F)cc(F)cc1F)C(F)(F)F [Example 151] |
| 1.8 | CON=C(N)c1nc(Cl)c(-c2c(F)cc(F)cc2F)c(N[C@H](C)C(F)(F)F)n1 [Example 130] |
| 1.5 | C[C@@H](Nc1nc(C(N)=NO)nc(Cl)c1-c1c(F)cc(F)cc1F)C(F)(F)F [Example 137] |
